Assay [1] concerns the target T1, full-length MALT1 protein (Strep-MALT1(1-824)-His) (Homo sapiens, UniProt Q9UDY8).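 Note: fluorogenic LRSR-AMC substrate cleavage by MALT1, 50 min compound preincubation then 4 h reaction at RT, 11-point dilution from 30 µM, scaled between enzyme-free and untreated enzyme controls.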
T1 sequence (Q9UDY8 1-824): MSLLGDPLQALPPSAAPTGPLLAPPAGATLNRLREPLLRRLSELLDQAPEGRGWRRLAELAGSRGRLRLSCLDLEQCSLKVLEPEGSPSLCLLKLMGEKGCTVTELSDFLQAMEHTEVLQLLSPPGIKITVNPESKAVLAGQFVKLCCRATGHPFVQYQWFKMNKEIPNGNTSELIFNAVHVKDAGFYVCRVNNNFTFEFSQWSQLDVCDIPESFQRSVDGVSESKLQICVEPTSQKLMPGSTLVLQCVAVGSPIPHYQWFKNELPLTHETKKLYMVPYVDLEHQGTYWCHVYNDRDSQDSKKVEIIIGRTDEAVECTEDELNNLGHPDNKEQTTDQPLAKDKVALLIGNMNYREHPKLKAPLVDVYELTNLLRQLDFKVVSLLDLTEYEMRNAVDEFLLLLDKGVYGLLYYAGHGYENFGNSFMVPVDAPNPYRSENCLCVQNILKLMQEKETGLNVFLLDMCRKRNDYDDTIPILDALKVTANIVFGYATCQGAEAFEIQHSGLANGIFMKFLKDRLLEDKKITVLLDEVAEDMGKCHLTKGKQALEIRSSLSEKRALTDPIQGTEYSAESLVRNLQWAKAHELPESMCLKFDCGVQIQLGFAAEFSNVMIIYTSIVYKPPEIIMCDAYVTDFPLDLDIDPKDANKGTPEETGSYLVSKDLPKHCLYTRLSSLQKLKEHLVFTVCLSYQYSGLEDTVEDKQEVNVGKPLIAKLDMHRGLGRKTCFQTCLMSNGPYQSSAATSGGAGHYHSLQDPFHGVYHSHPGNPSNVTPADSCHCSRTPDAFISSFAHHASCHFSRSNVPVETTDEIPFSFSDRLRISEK
Briefly: biochemical.

The subject of assay [2] is Secretion of IL6 by OCI-LY3 ABC-DLBCL cells. Put plainly: Human IL6 Mesoscale assay (OCI-LY3). The class given is cell-based. The note with it: OCI-LY3 cells, 24 h incubation, supernatant, MSD V-Plex, read-out: Human IL6 Mesoscale assay (OCI-LY3). As for the experimental part: (§1) NFKB signaling regulates the secretion of multiple cytokines, including IL6 and IL10. Secretion of the cytokines IL6 and IL10 by TMD8 or OCI-LY3 ABC-DLBCL cells was measured using a mesoscale assay.
(§2) Cell passage number should not exceed 30. Cells should be kept between 0.5-2.5 million cells per mL during culturing and cells should be supplemented every 2-3 days with fresh 50 µM beta-mercaptoenthanol. No beta-mercaptoethanol was used during the mesoscale assay.
(§3) DMSO control wells were used to determine the maximum signal (High Control (HC)). […] Compounds and cells were incubated for 24 h at 37° C. and 5% CO2 (assay volume is 150 μL). After 24 h of incubation 50 μL of the supernatant was transferred to a MSD plate (V-Plex Proinflammation Panel 1 (human) kit, Mesoscale (MSD)) and incubated for 2 h with vigorous shaking (600 rpm) at room temperature. Following incubation, plates were washed 3× with PBS+0.05% Tween-20 and 25 μL detection antibody solution (IL6 & IL10 antibodies in diluent 3 (MSD)) was added per well followed by 2 h of incubation with vigorous shaking (600 rpm) at room temperature. After 3× washes with PBS+0.05% Tween-20, plates were incubated with 150 μL 2× Read Buffer T and read on SECTOR imager.

Assay [3] concerns Secretion of IL10 by OCI-LY3 ABC-DLBCL cells. Put plainly: Human IL10 Mesoscale assay (OCI-LY3). The note with it: OCI-LY3 cells, 24 h incubation, supernatant, MSD V-Plex, read-out: Human IL10 Mesoscale assay (OCI-LY3). The class given is cell-based. As for the experimental part: as §1, §2, §3

`N#Cc1cc(NC(=O)c2cnn(-c3c(F)cc(F)cc3F)c2C(F)(F)F)cnc1-n1nccn1` [Cpd 173, N-(5-cyano-6-(2H-1,2,3-triazol-2-yl)pyridin-3-yl)-5-(trifluoromethyl)-1-(2,4,6-trifluorophenyl)-1H-pyrazole-4-carboxamide]: the IC50 in assay [1] is 151 nM; in assay [2], 129 nM; in assay [3], 95 nM.
For `N#Cc1cc(NC(=O)c2cnn(-c3nc(N)ccc3Cl)c2C(F)(F)F)cnc1-n1nccn1` [Cpd 175, 1-(6-amino-3-chloropyridin-2-yl)-N-(5-cyano-6-(2H-1,2,3-triazol-2-yl)pyridin-3-yl)-5-(trifluoromethyl)-1H-pyrazole-4-carboxamide] the same measures were 141 nM, 331 nM and 229 nM.
Taken in the same sequence, the figures for `Cc1cc(N)nc(-n2ncc(C(=O)Nc3cnc(-n4nccn4)c(C#N)c3)c2C(F)(F)F)c1` [Cpd 176, 1-(6-amino-4-methylpyridin-2-yl)-N-(5-cyano-6-(2H-1,2,3-triazol-2-yl)pyridin-3-yl)-5-(trifluoromethyl)-1H-pyrazole-4-carboxamide] were 170 nM, 813 nM and 813 nM.
`Cc1nc(-n2nccn2)c(C#N)cc1NC(=O)c1cnn(-c2ccc(C#N)c(N)n2)c1C(F)(F)F` [Cpd 177, 1-(6-amino-5-cyanopyridin-2-yl)-N-(5-cyano-2-methyl-6-(2H-1,2,3-triazol-2-yl)pyridin-3-yl)-5-(trifluoromethyl)-1H-pyrazole-4-carboxamide]: the IC50 in assay [1] was 195 nM; in assay [2], 7410 nM; in assay [3], 2750 nM.
Taken in the same sequence, the figures for `Cc1nc(-n2nccn2)c(Cl)cc1NC(=O)c1cnn(-c2ccc(F)c(N)n2)c1C(F)(F)F` [Cpd 179, 1-(6-amino-5-fluoropyridin-2-yl)-N-(5-chloro-2-methyl-6-(2H-1,2,3-triazol-2-yl)pyridin-3-yl)-5-(trifluoromethyl)-1H-pyrazole-4-carboxamide] were 204 nM, 676 nM and 324 nM.
For `Nc1cccc(-n2ncc(C(=O)Nc3cnc(-n4nccn4)c(Cl)c3)c2C(F)(F)F)n1` [Cpd 180, 1-(6-aminopyridin-2-yl)-N-(5-chloro-6-(2H-1,2,3-triazol-2-yl)pyridin-3-yl)-5-(trifluoromethyl)-1H-pyrazole-4-carboxamide] the same measures were 219 nM, 257 nM and 170 nM.
Taken in the same sequence, the figures for `Cc1nc(-n2nccn2)c(Br)cc1NC(=O)c1cnn(-c2ccc(F)c(N)n2)c1C(F)(F)F` [Cpd 181, 1-(6-amino-5-fluoropyridin-2-yl)-N-(5-bromo-2-methyl-6-(2H-1,2,3-triazol-2-yl)pyridin-3-yl)-5-(trifluoromethyl)-1H-pyrazole-4-carboxamide] were 234 nM, 363 nM and 240 nM.
As for `Cc1nc(-n2nccn2)c(C#N)cc1NC(=O)c1cnn(-c2ccc(F)c(N)n2)c1C(F)(F)F` [Cpd 182, 1-(6-amino-5-fluoropyridin-2-yl)-N-(5-cyano-2-methyl-6-(2H-1,2,3-triazol-2-yl)pyridin-3-yl)-5-(trifluoromethyl)-1H-pyrazole-4-carboxamide], the IC50 came out at 234 nM in assay [1], 490 nM in assay [2] and 389 nM in assay [3].
Taken in the same sequence, the figures for `Nc1ccc(Cl)c(-n2ncc(C(=O)Nc3cnc(-n4nccn4)c(Cl)c3)c2C(F)(F)F)n1` [Cpd 183, 1-(6-amino-3-chloropyridin-2-yl)-N-(5-chloro-6-(2H-1,2,3-triazol-2-yl)pyridin-3-yl)-5-(trifluoromethyl)-1H-pyrazole-4-carboxamide] were 282 nM, 269 nM and 195 nM.

For the origin of these results see patent US11040031B2, “Pyrazole derivatives as MALT1 inhibitors” (Janssen Pharmaceutica NV, priority 2018, dated 2021).
